According to patent US9302999B2, “Substituted triazoles as herbicides” (E. I. DU PONT DE NEMOURS AND COMPANY, priority 2012, dated 2016):

Tests used:
Assay type in all cases: in vivo
[1] = system: bermudagrass (Cynodon dactylon); assay: Test C pre-/postemergence: bermudagrass
Summary of the method: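 Preemergence on seeds in loam/sand, postemergence on 2–18 cm (1–4-leaf) plants in peat-based medium; compounds in non-phytotoxic solvent with surfactant. After 13–15 days in greenhouse, visual rating versus controls, 0 (no effect) to 100 (complete control).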

[2] = system: wheat, spring (spring wheat, Triticum aestivum); assay: Test D pre-/postemergence: wheat, spring
Description: (§1) Seeds of plant species selected from bluegrass (annual bluegrass, Poa annua), blackgrass (Alopecurus myosuroides), canarygrass (Phalaris minor), chickweed (common chickweed, Stellaria media), galium (catchweed bedstraw, Galium aparine), bromegrass, downy (downy bromegrass, Bromus tectorum), field poppy (Papaver rhoeas), field violet (Viola arvensis), foxtail, green (green foxtail, Setaria viridis), deadnettle (henbit deadnettle, Lamium amplexicaule), ryegrass, Italian (Italian ryegrass, Lolium multiflorum), kochia (Kochia scoparia), lambsquarters (Chenopodium album), oilseed rape (Brassica napus), pigweed (Amaranthus retroflexus), Russian thistle (Salsola iberica), chamomile (scentless chamomile, Matricaria inodora), speedwell (bird's-eye speedwell, Veronica persica), barley, spring (spring barley, Hordeum vulgare), wheat, spring (spring wheat, Triticum aestivum), buckwheat, wild (wild buckwheat, Polygonum convolvulus), mustard, wild (wild mustard, Sinapis arvensis), oat, wild (wild oat, Avena fatua), radish, wild (wild radish, Raphanus raphanistrum), windgrass (Apera spica-venti), barley, winter (winter barley, Hordeum vulgare), and wheat, winter (winter wheat, Triticum aestivum) were planted into a silt loam soil and treated preemergence with test chemicals formulated in a non-phytotoxic solvent mixture which included a surfactant. At the same time, these same crop and weed species were planted in pots containing the planting medium comprising spaghnum peat moss, vermiculite, wetting agent and starter nutrients and treated with postemergence applications of the test chemicals formulated in the same manner. Plants ranged in height from 2 to 18 cm (1- to 4-leaf stage).
(§2) Treated plants and controls were maintained in a controlled growth environment for 14 to 21 days after which time all species were compared to controls and visually evaluated. Plant response ratings, summarized in Table D, are based on a scale of 0 to 100 where 0 is no effect and 100 is complete control. A dash (-) response means no test result.

[3] = system: field violet (Viola arvensis); assay: Test D pre-/postemergence: field violet
Description: as §1, §2

kochia (Kochia scoparia) = assay: Test D pre-/postemergence: kochia
Description: as §1, §2

[4] = system: barley, winter (winter barley, Hordeum vulgare); assay: Test D pre-/postemergence: barley, winter
Summary of the method: (§3)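 Visual 0–100 rating versus untreated controls (0 no effect, 100 complete control), taken 14 to 21 days after treatment in a controlled growth environment. Preemergence: silt loam soil. Postemergence: peat moss/vermiculite medium, plants 2 to 18 cm, 1- to 4-leaf stage. Solvent mixture with surfactant.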

[5] = system: lambsquarters (Chenopodium album); assay: Test D pre-/postemergence: lambsquarters
Summary of the method: as §3

[6] = system: bromegrass, downy (downy bromegrass, Bromus tectorum); assay: Test D pre-/postemergence: bromegrass, downy
Summary of the method: as §3

[7] = system: speedwell (bird's-eye speedwell, Veronica persica); assay: Test D pre-/postemergence: speedwell
Summary of the method: as §3

[8] = Postemergence, 31 g ai/ha, scale 0 to 100 (0 no effect, 100 complete control)
[9] = Postemergence, 62 g ai/ha, scale 0 to 100 (0 no effect, 100 complete control)
[10] = Postemergence, 125 g ai/ha, scale 0 to 100, 0 no effect, 100 complete control
[11] = Postemergence, 250 g ai/ha, scale 0 to 100 (0 no effect, 100 complete control)
[12] = Postemergence, 16 g ai/ha, scale 0 to 100
[13] = Preemergence, 16 g ai/ha, scale 0 to 100 (0 no effect, 100 complete control)
[14] = Preemergence, 31 g ai/ha, scale 0 to 100 (0 no effect, 100 complete control)
[15] = Preemergence, 62 g ai/ha, scale 0 to 100
[16] = Preemergence, 125 g ai/ha, scale 0 to 100
[17] = Preemergence, 250 g ai/ha, scale 0 to 100

Cc1nn(-c2ccc(F)cc2)nc1Cc1ccnc(C(F)(F)F)c1 [Compound 16, 4-[[2-(4-fluorophenyl)-5-methyl-2H-1,2,3-triazol-4-yl]methyl]-2-(trifluoromethyl)pyridine]
Plant response rating, Bermudagrass [1, 8]: 5
Plant response rating, Bermudagrass [1, 9]: 5
Plant response rating, Bermudagrass [1, 10]: 15
Plant response rating, Bermudagrass ([1]; Postemergence, 250 g ai/ha, scale 0 to 100): 65
Plant response rating, Bermudagrass ([1]; Preemergence, 31 g ai/ha, scale of 0 to 100, 0 is no effect, 100 is complete control): 5
Plant response rating, Bermudagrass ([1]; Preemergence, 62 g ai/ha, scale 0 to 100, 0 no effect, 100 complete control): 25
Plant response rating, Bermudagrass ([1]; Preemergence, 125 g ai/ha, scale 0 to 100, 0 no effect, 100 complete control): 75
Plant response rating, Bermudagrass ([1]; Preemergence, 250 g ai/ha, scale 0 to 100, 0 no effect, 100 complete control): 75
Plant response rating: Wheat, Spring [2, 8]: 10
Plant response rating: Wheat, Spring [2, 9]: 10
Plant response rating: Wheat, Spring [2, 10]: 15
Plant response rating: Wheat, Spring [2, 11]: 20
Plant response rating, Wheat, Spring [2, 12]: 5
Plant response rating, Wheat, Spring [2, 13]: 0
Plant response rating, Wheat, Spring [2, 14]: 0
Plant response rating, Wheat, Spring [2, 15]: 0
Plant response rating, Wheat, Spring [2, 16]: 5
Plant response rating, Wheat, Spring [2, 17]: 10
Plant response rating: Field Violet [3, 8]: 20
Plant response rating: Field Violet [3, 9]: 30
Plant response rating: Field Violet [3, 10]: 70
Plant response rating: Field Violet [3, 11]: 80
Plant response rating, Field Violet [3, 12]: 0
Plant response rating, Field Violet [3, 13]: 0
Plant response rating, Field Violet [3, 14]: 30
Plant response rating, Field Violet [3, 15]: 80
Plant response rating, Field Violet [3, 16]: 90
Plant response rating, Field Violet [3, 17]: 100
Plant response rating: Kochia (kochia (Kochia scoparia); [8]): 90
Plant response rating: Kochia (kochia (Kochia scoparia); [9]): 95
Plant response rating: Kochia (kochia (Kochia scoparia); [10]): 75
Plant response rating: Kochia (kochia (Kochia scoparia); [11]): 95
Plant response rating, Kochia (kochia (Kochia scoparia); [12]): 85
Plant response rating, Kochia (kochia (Kochia scoparia); [13]): 30
Plant response rating, Kochia (kochia (Kochia scoparia); [14]): 30
Plant response rating, Kochia (kochia (Kochia scoparia); [15]): 90
Plant response rating, Kochia (kochia (Kochia scoparia); [16]): 90
Plant response rating, Kochia (kochia (Kochia scoparia); [17]): 100
Plant response rating: Barley, Winter [4, 8]: 10
Plant response rating: Barley, Winter [4, 9]: 10
Plant response rating: Barley, Winter [4, 10]: 25
Plant response rating: Barley, Winter [4, 11]: 40
Plant response rating, Barley, Winter [4, 12]: 5
Plant response rating, Barley, Winter [4, 13]: 0
Plant response rating, Barley, Winter [4, 14]: 0
Plant response rating, Barley, Winter [4, 15]: 5
Plant response rating, Barley, Winter [4, 16]: 10
Plant response rating, Barley, Winter [4, 17]: 25
Plant response rating: Lambsquarters [5, 8]: 80
Plant response rating: Lambsquarters [5, 9]: 100
Plant response rating: Lambsquarters [5, 10]: 100
Plant response rating: Lambsquarters [5, 11]: 100
Plant response rating, Lambsquarters [5, 12]: 75
Plant response rating, Lambsquarters [5, 13]: 30
Plant response rating, Lambsquarters [5, 14]: 50
Plant response rating, Lambsquarters [5, 15]: 80
Plant response rating, Lambsquarters [5, 16]: 95
Plant response rating, Lambsquarters [5, 17]: 100
Plant response rating: Bromegrass, Downy [6, 8]: 10
Plant response rating: Bromegrass, Downy [6, 9]: 20
Plant response rating: Bromegrass, Downy [6, 10]: 40
Plant response rating: Bromegrass, Downy [6, 11]: 50
Plant response rating, Bromegrass, Downy [6, 12]: 0
Plant response rating, Bromegrass, Downy [6, 13]: 0
Plant response rating, Bromegrass, Downy [6, 14]: 20
Plant response rating, Bromegrass, Downy [6, 15]: 25
Plant response rating, Bromegrass, Downy [6, 16]: 25
Plant response rating, Bromegrass, Downy [6, 17]: 40
Plant response rating: Speedwell [7, 8]: 75
Plant response rating: Speedwell [7, 9]: 85
Plant response rating: Speedwell [7, 10]: 95
Plant response rating: Speedwell [7, 11]: 100
Plant response rating, Speedwell [7, 12]: 25
Plant response rating, Speedwell [7, 14]: 20
Plant response rating, Speedwell [7, 15]: 40
Plant response rating, Speedwell [7, 16]: 100
Plant response rating, Speedwell [7, 17]: 100
